Laboratory results reported in ChEMBL document CHEMBL1158055, “Grandisines C-G, indolizidine alkaloids from the Australian rainforest tree Elaeocarpus grandis” (J Nat Prod, 2006).

Target: Delta-type opioid receptor (Homo sapiens, UniProt P41143)
Assay: Displacement of [125I]deltorphin 2 from human recombinant delta opioid receptor expressed in HEK293 cells
Format: cell-based

Chain of Delta-type opioid receptor (P41143 whole entry): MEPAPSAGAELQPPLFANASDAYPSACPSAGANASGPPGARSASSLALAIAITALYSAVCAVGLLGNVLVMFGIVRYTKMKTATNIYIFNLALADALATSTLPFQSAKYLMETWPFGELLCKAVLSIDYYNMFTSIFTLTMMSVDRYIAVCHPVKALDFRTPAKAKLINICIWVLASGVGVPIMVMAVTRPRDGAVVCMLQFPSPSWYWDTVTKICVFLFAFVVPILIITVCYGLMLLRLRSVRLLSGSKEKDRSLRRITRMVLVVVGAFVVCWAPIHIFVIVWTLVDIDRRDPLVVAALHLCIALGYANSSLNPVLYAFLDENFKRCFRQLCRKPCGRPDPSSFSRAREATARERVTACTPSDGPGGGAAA

SMILES	IC50 [µM]
C[C@H]1C[C@H](N)CC2=C1C(=O)[C@@H]1[C@@H](CCN3CCC[C@@H]13)O2 [GRANDISINE F]	1.55
C[C@H]1CC=CC2=C1C(=O)[C@@H]1[C@@H](CCN3CCC[C@@H]13)O2	9.9
COC(=O)C[C@@H]1C[C@H](C)CC(C2=CCCN3CCCC23)=N1 (stereo not given in full) [GRANDISINE G]	75.4
C[C@H]1C[C@H](O)CC2=C1C(=O)[C@@H]1[C@@H](CCN3CCC[C@@H]13)O2 [GRANDISINE C]	14.6
C[C@H]1CC=CC(=O)[C@@H]1C(=O)C1=CCCN2CCC[C@@H]12 [GRANDISINE D]	1.65
